These are literature values, as cited in article PMC3985708 (Biochemistry, 2014).

For one series, the target named is unmodified hASL^Lys3. The following applies: read-out: Kd of NCp7 for unmodified ASL.
The next series concerns the target modified hASL^Lys3UUU. The following applies: read-out: Kd, modified hASL^Lys3UUU; Kd value from previous studies.

Turning to “NCp7: HIV-1 nucleocapsid protein 7 (MQRGNFRNQRKIVKCFNCGKEGHTARNCRAPRKKGCWKCGKEGHQMKDCTERQAN; Nucleocapsid protein p7; UniProt P04591 378-432, looked up)”, the “Increase of NCp7 affinity for hASL^Lys3 by the modifications” value in the series on modified hASL^Lys3 (modified versus unmodified ASL) is listed as roughly 10 fold. In addition, the equilibrium dissociation constant (Kd) (in general, the constant that tells how readily two partners part at equilibrium) at modified hASL^Lys3 (read-out: Kd of NCp7 for modified ASL, modified hASL^Lys3) was 280 ± 30 nM; on unmodified hASL^Lys3 it was 2300 ± 620 nM.

With RVTHHAFLGAHRTVG [P6], the Kd on modified hASL^Lys3UUU was 500 ± 100 nM.
